Where a name gives a salt, the structure may show the parent alone. Read-outs that look alike come from different tables or passages of the source.
Key:
[1] = tested on: Trypanosoma brucei brucei; assay: In vitro antiprotozoal activity against Trypanosoma brucei brucei; type: cell-based
Protocol: (§1) In vitro antiprotozoal activities, see Ismail, M. A., et al., J. Med. Chem. 46, 4761-4769 (2003), and cytotoxicity were measured following established protocols, see Balz, T., et al., EMBO J., 4, 1273-1277 (1985); Räz. B., et al., Acta Trop., 68:139-147 (1997); and Sperandeo, N. R. et al., Chem. Biochem., 4, 69-73 (2003). […] Other positive controls employed were melarsoprol (against T. brucei), chloroquine, and artemisinin (against P. falciparum), and podophyllotoxin (against VERO cells).

Plasmodium falciparum = assay: In vitro antiprotozoal activity against Plasmodium falciparum; type: cell-based
Protocol: as §1

[2] = Cytotoxicity to VERO cells; type: cell-based, African green monkey (Cercopithecus Aethiops); conditions: African green monkey (Cercopithecus aethiops)
Protocol: as §1

VERO cells = assay: Cytotoxicity to VERO cells; type: cell-based, African green monkey (Cercopithecus Aethiops); conditions: Table 1; read-out: IC50 (μM) Cytotoxicity VERO cells
Protocol: as §1

[3] = Trypanosoma brucei, Table 1, read-out: IC50 (μM) Trypanosoma brucei brucei
[4] = Plasmodium falciparum, Table 1, read-out: IC50 (μM) Plasmodium falciparum
[5] = IC50 (μM) Cytotoxicity VERO cells
[6] = Trypanosoma brucei, read-out: IC50 values against T. brucei brucei
[7] = Plasmodium falciparum, read-out: antiplasmodial IC50 values (P. falciparum)

SMILES | IC50 [1, 3] [µM] | IC50 (Plasmodium falciparum; [4]) [µM] | IC50 [2, 5] [µM] | melting point | IC50 (Plasmodium falciparum; [7]) [µM] | further results
Cl.Cl.N=C(N)c1cccc(-c2cc(-c3cc(C(=N)N)ccc3[N+](=O)[O-])on2)c1 [Compound 35, 5-(5-Amidino-2-nitrophenyl)-3-(3-amidinophenyl)isoxazole dihydrochloride] | 1.63 | 0.334 | 9.8 | 222 °C (dec.) |  | 
CCN(CC)CCCC(C)Nc1ccnc2cc(Cl)ccc12 (stereo not drawn) [Chloroquine, reference compound] |  |  |  |  |  | IC50 (Plasmodium falciparum; Plasmodium falciparum, read-out: IC50 (μM) Plasmodium falciparum): 0.104 µM
c1cc(C2=NCCN2)cc(-c2cc(-c3ccc(C4=NCCN4)cc3)no2)c1 [Compound 24, 3-[4-(2-Imidazolinyl)phenyl]-5-[3-(2-imidazolinyl)phenyl]isoxazole dihydrochloride] |  |  |  |  |  | IC50 ([1]; Table 1, read-out: IC50 (μM) Trypanosoma brucei brucei): 0.974 µM; IC50 (Plasmodium falciparum; Table 1, read-out: IC50 (μM) Plasmodium falciparum): 0.077 µM; IC50 (VERO cells): 30.2 µM
COc1ccc(C(=N)NC(C)C)cc1-c1cc(-c2cc(C(=N)NC(C)C)ccc2OC)on1.Cl.Cl [Compound 42, 3,5-Bis[5-(N-isopropyl)amidino-2-methoxyphenyl]isoxazole dihydrochloride] | 0.374 | 0.0932 | 21.7 | 185 °C (dec.) |  | 
Cl.Cl.N=C(N)c1ccc(-c2cc(-c3ccc(C(=N)N)cc3[N+](=O)[O-])no2)cc1 [Compound 9, 3-(4-Amidino-2-nitrophenyl)-5-(4-amidinophenyl)isoxazole dihydrochloride] | 0.0324 | 0.0401 | 22.2 | 350 °C (dec.) |  | 
Cl.N=C(N)c1ccc(-c2cc(-c3ccccc3)no2)cc1 [Compound 1, 5-(4-Amidinophenyl)-3-phenylisoxazole hydrochloride] | 1.72 | 3.3 | 19.1 | 262 to 265 °C |  | 
Cl.Cl.N=C(N)c1cccc(-c2cc(-c3ccc(C(=N)N)cc3Cl)on2)c1 [Compound 17, 5-(4-Amidino-2-chlorophenyl)-3-(3-amidinophenyl)isoxazole dihydrochloride] | 0.0063 | 0.0187 | 82.7 | 242 to 245 °C | 0.008 to 0.03 | IC50 [1, 6]: 0.0035 to 0.009 µM
Cl.Cl.N=C(N)c1ccc(-c2cc(-c3cccc(C(=N)N)c3)on2)cc1 [Compound 22, 3-(4-Amidinophenyl)-5-(3-amidinophenyl)isoxazole di hydrochloride] | 0.0035 | 0.0025 | 31.2 | 336 to 338 °C |  | IC50 [1, 6]: 0.0035 to 0.009 µM
COc1cc([C@@H]2c3cc4c(cc3[C@H](O)[C@H]3COC(=O)[C@H]23)OCO4)cc(OC)c1OC [Podophyllotoxin, reference compound] |  |  |  |  |  | IC50 ([2]; Table 1, read-out: IC50 (μM) Cytotoxicity VERO cells): 0.0186 µM
N=C(N)c1ccc(-c2cc(-c3ccc(C(=N)N)cc3Cl)no2)cc1 [Compound 10, 3-(4-Amidino-2-chlorophenyl)-5-(4-amidinophenyl)isoxazole dihydrochloride] | 0.0232 | 0.0555 | 5.69 |  |  | 
Cl.Cl.N=C(N)c1ccc(-c2cc(-c3cc(C(=N)N)ccc3Cl)on2)cc1 [Compound 25, 5-(5-Amidino-2-chlorophenyl)-3-(4-amidinophenyl)isoxazole dihydrochloride] | 0.0209 | 0.0035 | 71.4 | 356 to 358 °C (dec.) | < 0.008 | 
N=C(N)c1ccc(-c2cc(-c3cccc(C(=N)N)c3)no2)cc1 [Compound 13, 3-(3-Amidinophenyl)-5-(4-amidinophenyl)isoxazole dihydrochloride] | 0.0063 | 0.0578 | 24.1 |  | 0.0578 | IC50 [1, 6]: 0.0035 to 0.009 µM
C[C@@H]1CC[C@H]2[C@@H](C)C(=O)O[C@@H]3O[C@@]4(C)CC[C@@H]1[C@]32OO4 [Artemisinin, reference compound] |  | 0.0067 |  |  |  | 
Cl.Cl.N=C(N)c1ccc(-c2cc(-c3cc(C(=N)N)ccc3Cl)no2)cc1 [Compound 20, 3-(5-Amidino-2-chlorophenyl)-5-(4-amidinophenyl)isoxazole dihydrochloride] | 0.0212 | 0.0071 | 5.67 | 348 °C | < 0.008 | 
N=C(N)c1ccc(-c2cc(-c3ccccc3)on2)cc1 (as salt: hydrochloride) [Compound 2, 3-(4-Amidinophenyl)-5-phenylisoxazole] |  |  |  | 287 to 292 °C |  | 
Cl.Cl.N=C(N)c1ccc(-c2cc(-c3ccc(C(=N)N)cc3Cl)on2)cc1 [Compound 7, 5-(4-Amidino-2-chlorophenyl)-3-(4-amidinophenyl)isoxazole dihydrochloride] | 0.0155 | 0.0079 | 41 | > 350 °C (dec.) | < 0.008 | 
N=C(N)c1ccc(-c2cc(-c3ccc(C(=N)N)cc3)on2)cc1 [Compound 3, 3,5-Bis(4-amidinophenyl)isoxazole dihydrochloride] | 0.0051 | 0.0226 | 2.13 |  |  | IC50 [1, 6]: 0.0035 to 0.009 µM; IC50 ([1]; dihydrochloride, read-out: IC50 values against T. brucei brucei): 0.0051 µM
Cl.Cl.N=C(N)c1cccc(-c2cc(-c3ccc(C(=N)N)cc3[N+](=O)[O-])on2)c1 [Compound 16, 5-(4-Amidino-2-nitrophenyl)-3-(3-amidinophenyl)isoxazole dihydrochloride] | 0.009 | 0.0259 | 48 | 225 °C | 0.008 to 0.03 | IC50 [1, 6]: 0.0035 to 0.009 µM
COc1ccc(C(=N)N)cc1-c1cc(-c2cccc(C(=N)N)c2)on1.Cl.Cl [Compound 40, 3-(5-Amidino-2-methoxyphenyl)-5-(3-amidinophenyl)isoxazole dihydrochloride] | 0.027 | 0.0174 | 215 | 210 °C (dec.) | 0.008 to 0.03 | 
Cl.Cl.N=C(N)c1cccc(-c2cc(-c3ccc(C(=N)N)cc3Cl)no2)c1 [Compound 28, 3-(4-Amidino-2-chlorophenyl)-5-(3-amidinophenyl)isoxazole dihydrochloride] | 0.0116 | 0.0141 | 87.4 | 210 °C (dec.) | 0.008 to 0.03 | 
Cl.Cl.N=C(N)c1ccc(-c2cc(-c3ccc(C(=N)N)cc3[N+](=O)[O-])on2)cc1 [Compound 6, 5-(4-Amidino-2-nitrophenyl)-3-(4-amidinophenyl)isoxazole dihydrochloride] | 0.0139 | 0.0149 | 15.8 | > 350 °C (dec.) | 0.008 to 0.03 | 
COc1ccc(C(=N)N)cc1-c1cc(-c2ccc(C(=N)N)cc2)no1.Cl.Cl [Compound 26, 5-(5-Amidino-2-methoxyphenyl)-3-(4-amidinophenyl)isoxazole dihydrochloride] | 0.0043 | 0.0116 | 52.8 | 240 to 242 °C | 0.008 to 0.03 | IC50 [1, 6]: 0.0035 to 0.009 µM
COc1ccc(C(=N)N)cc1-c1cc(-c2cc(C(=N)N)ccc2OC)on1.Cl.Cl [Compound 41, 3,5-Bis(5-amidino-2-methoxyphenyl)isoxazole dihydrochloride] | 0.0042 | 0.0211 | 79.9 | 240 °C (dec.) | 0.008 to 0.03 | IC50 [1, 6]: 0.0035 to 0.009 µM
Nc1nc(N)nc(Nc2ccc([As]3SCC(CO)S3)cc2)n1 (stereo not drawn) [Melarsoprol, reference compound] |  |  |  |  |  | IC50 ([1]; Trypanosoma brucei, read-out: IC50 (μM) Trypanosoma brucei brucei): 0.00637 µM
N=C(N)c1cccc(-c2cc(-c3cc(C(=N)N)ccc3Cl)no2)c1 [Compound 39, 3-(5-Amidino-2-chlorophenyl)-5-(3-amidinophenyl)isoxazole dihydrochloride] | 0.0463 | 0.0306 | 55.5 |  |  | 
N=C(N)c1ccc(-c2cc(-c3ccccc3)on2)cc1 [Compound 2, 3-(4-Amidinophenyl)-5-phenylisoxazole] | 1.12 | 3.3 | 18.5 |  |  | 
